How the values were obtained:
Assay type in all cases: in vivo
[1] = test system: Echinochloa crus-galli (L.) P. Beauv. var. formosensis Ohwi; assay: Test for Herbicidal Effect in Flooding Treatment (#1), ECHDG; conditions: for ECHDG #1 herbicidal effect (growth inhibition grade): flooding treatment at seeding, dose 2 kg/ha, visual observation on day 21; for ECHDG #1 herbicidal effect (growth inhibition rating 0-5): flooding treatment #1
Method: (§1) (#1) Test for Herbicidal Effect in Flooding Treatment: Styrol cups each having an opening diameter of 8 cm (about 52 cm^2) were respectively filled with soil (45 ml) which had been passed through a sieve (2 mm). Water (about 115 ml) was mixed with the soil such that the soil was flooded. After the soil stood still for 24 hours, Monochoria vaginalis, Echinochloa crus-galli (L.) P. Beauv. var. formosensis Ohwi, Cyperus difformis (umbrella sedge), and Scirpus juncoides were seeded. Each of the compounds of the present invention was dissolved in acetone, and the obtained product was then diluted with water containing Tween 80®. Each of the resultant chemical solutions was dropped on the entire surface of an associated one of treatment sections, so that each section was treated with 1 ml of the respective chemical solution (a dose of 2 kg/ha). After the treatment, the plants were grown in a glasshouse. On day 21, a survey was conducted on the herbicidal activity by visual observation, and evaluation was made according to the following criteria. 0: Growth inhibition effect is less than 10%. 1: Growth inhibition effect is equal to or greater than 10%, and less than 30%. 2; Growth inhibition effect is equal to or greater than 30%, and less than 50%. 3: Growth inhibition effect equal to or greater than 50%, and less than 70%. 4: Growth inhibition effect is equal to or greater than 70%, and less than 90%. 5: Growth inhibition effect is equal to or greater than 90%, or complete withering is achieved. ECHDG=Echinochloa crus-galli (L.) P. Beauv. var. formosensis Ohwi, MONVA=Monochoria vaginalis, SCIJU=Scirpus juncoides, CYMIC=Cyperus microiria.

[2] = test system: Scirpus juncoides; assay: Test for Herbicidal Effect in Flooding Treatment (#1), SCIJU; conditions: for SCIJU #1 herbicidal effect (growth inhibition grade): flooding treatment at seeding, dose 2 kg/ha, visual observation on day 21; for SCIJU #1 herbicidal effect (growth inhibition rating 0-5): flooding treatment #1
Method: as §1

[3] = test system: Echinochloa crus-galli (L.) P. Beauv. var. formosensis Ohwi; assay: Test for Herbicidal Effect in Flooding Treatment (#2), ECHDG at 2-2.5 leaf stage; conditions: for ECHDG (2-2.5L) #2 herbicidal effect (growth inhibition grade): flooding treatment at 2-2.5 leaf stage, dose 0.2 kg/ha, visual observation on day 21; for ECHDG (2-2.5L) #2 herbicidal effect (growth inhibition rating 0-5): flooding treatment #2, 2-2.5 leaf stage
Method: (#2) Test for Herbicidal Effect in Flooding Treatment: Styrol cups each having an opening diameter of 13 cm (about 130 cm^2) were respectively filled with muddy soil (500 ml). Water (about 300 ml) was mixed with the soil such that the soil was flooded. After the soil stood still for 24 hours, Echinochloa crus-galli (L.) P. Beauv. var. formosensis Ohwi was seeded. When the Echinochloa crus-galli (L.) P. Beauv. var. formosensis Ohwi grew to reach 2-2.5 leaf stage, chemical solutions were dropped on the entire surface of treatment sections, so that each section is treated with 1 ml of the respective chemical solution (a dose of 0.2 kg/ha). Each of the chemical solutions was prepared by dissolving associated one of the compounds of the present invention in acetone, followed by dilution with water containing Tween 80 g. After the treatment, the plants were grown in a glasshouse. On day 21, a survey was conducted on the herbicidal activity by visual observation, and evaluation was made according to the following criteria. 0: Growth inhibition effect is less than 10%. 1: Growth inhibition effect is equal to or greater than 10%, and less than 30%. 2; Growth inhibition effect is equal to or greater than 30%, and less than 50%. 3: Growth inhibition effect equal to or greater than 50%, and less than 70%. 4: Growth inhibition effect is equal to or greater than 70%, and less than 90%. 5: Growth inhibition effect is equal to or greater than 90%, or complete withering is achieved. ECHDG=Echinochloa crus-galli (L.) P. Beauv. var. formosensis Ohwi, MONVA=Monochoria vaginalis, SCIJU=Scirpus juncoides, CYMIC=Cyperus microiria. The herbicidal activity of the following comparative compounds A and B (the compounds disclosed Japanese Unexamined Patent Publication No. 2003-096059) were evaluated in a manner pursuant to Test Example 1. (#2).

Structure (SMILES)	ECHDG #1 herbicidal effect (growth inhibition grade) [1]	SCIJU #1 herbicidal effect (growth inhibition grade) [2]	ECHDG (2-2.5L) #2 herbicidal effect (growth inhibition grade) [3]	ECHDG #1 herbicidal effect (growth inhibition rating 0-5) [1]	SCIJU #1 herbicidal effect (growth inhibition rating 0-5) [2]	ECHDG (2-2.5L) #2 herbicidal effect (growth inhibition rating 0-5) [3]
CC(c1c(F)cccc1OC(F)F)S(=O)(=O)c1ncc(Cl)s1 (racemic) [Compound 1C-140]	5 (Growth inhibition effect is equal to or greater than 90%, or complete withering is achieved)	5 (Growth inhibition effect is equal to or greater than 90%, or complete withering is achieved)	5 (Growth inhibition effect is equal to or greater than 90%, or complete withering is achieved)			
[O-][S+](Cc1c(Cl)cccc1OC(F)F)c1ncc(Cl)s1 (stereo not shown) [Compound 1B-4]				5 (Growth inhibition effect is equal to or greater than 90%, or complete withering is achieved)	5 (Growth inhibition effect is equal to or greater than 90%, or complete withering is achieved)	5 (Growth inhibition effect is equal to or greater than 90%, or complete withering is achieved)
[O-][S+](Cc1c(F)cccc1OC(F)(F)F)c1ncc(Cl)s1 (stereo not shown) [Compound 1B-5]				5 (Growth inhibition effect is equal to or greater than 90%, or complete withering is achieved)	5 (Growth inhibition effect is equal to or greater than 90%, or complete withering is achieved)	5 (Growth inhibition effect is equal to or greater than 90%, or complete withering is achieved)
[O-][S+](Cc1c(Cl)cccc1OC(F)(F)F)c1ncc(Cl)s1 (stereo not shown) [Compound 1B-6]				5 (Growth inhibition effect is equal to or greater than 90%, or complete withering is achieved)	5 (Growth inhibition effect is equal to or greater than 90%, or complete withering is achieved)	5 (Growth inhibition effect is equal to or greater than 90%, or complete withering is achieved)
[O-][S+](Cc1c(OCC(F)(F)F)cccc1C(F)(F)F)c1ncc(Cl)s1 (stereo not shown) [Compound 1B-11]				5 (Growth inhibition effect is equal to or greater than 90%, or complete withering is achieved)	5 (Growth inhibition effect is equal to or greater than 90%, or complete withering is achieved)	5 (Growth inhibition effect is equal to or greater than 90%, or complete withering is achieved)
[O-][S+](Cc1ccccc1OC(F)F)c1ncc(Br)s1 (stereo not shown) [Compound 1B-18]				5 (Growth inhibition effect is equal to or greater than 90%, or complete withering is achieved)	5 (Growth inhibition effect is equal to or greater than 90%, or complete withering is achieved)	5 (Growth inhibition effect is equal to or greater than 90%, or complete withering is achieved)
[O-][S+](Cc1c(F)cccc1OC(F)(F)F)c1ncc(Br)s1 (stereo not shown) [Compound 1B-21]				5 (Growth inhibition effect is equal to or greater than 90%, or complete withering is achieved)	5 (Growth inhibition effect is equal to or greater than 90%, or complete withering is achieved)	5 (Growth inhibition effect is equal to or greater than 90%, or complete withering is achieved)
[O-][S+](Cc1c(Cl)cccc1OC(F)(F)F)c1ncc(Br)s1 (stereo not shown) [Compound 1B-22]					5 (Growth inhibition effect is equal to or greater than 90%, or complete withering is achieved)	5 (Growth inhibition effect is equal to or greater than 90%, or complete withering is achieved)
[O-][S+](Cc1ccccc1OC(F)(F)C(F)F)c1ncc(Br)s1 (stereo not shown) [Compound 1B-23]				5 (Growth inhibition effect is equal to or greater than 90%, or complete withering is achieved)		4 (Growth inhibition effect is equal to or greater than 70%, and less than 90%)
[O-][S+](Cc1c(OC(F)(F)C(F)(F)F)cccc1C(F)(F)F)c1ncc(Br)s1 (stereo not shown) [Compound 1B-25]				5 (Growth inhibition effect is equal to or greater than 90%, or complete withering is achieved)	5 (Growth inhibition effect is equal to or greater than 90%, or complete withering is achieved)	5 (Growth inhibition effect is equal to or greater than 90%, or complete withering is achieved)
CCS(=O)(=O)c1cccc(F)c1C[S+]([O-])c1ncc(Cl)s1 (stereo not shown) [Compound 1B-28]				5 (Growth inhibition effect is equal to or greater than 90%, or complete withering is achieved)	4 (Growth inhibition effect is equal to or greater than 70%, and less than 90%)	
O=S(=O)(Oc1cccc(F)c1C[S+]([O-])c1ncc(Cl)s1)C(F)(F)F (stereo not shown) [Compound 1B-29]				5 (Growth inhibition effect is equal to or greater than 90%, or complete withering is achieved)	5 (Growth inhibition effect is equal to or greater than 90%, or complete withering is achieved)	5 (Growth inhibition effect is equal to or greater than 90%, or complete withering is achieved)
COc1ccc(CS(=O)(=O)c2ncc(Cl)s2)c(F)c1 [Compound 1C-1]	5 (Growth inhibition effect is equal to or greater than 90%, or complete withering is achieved)	4 (Growth inhibition effect is equal to or greater than 70%, and less than 90%)				
O=S(=O)(Cc1ccc(F)c(Oc2ccccc2)c1)c1ncc(Cl)s1 [Compound 1C-86]	5 (Growth inhibition effect is equal to or greater than 90%, or complete withering is achieved)		1 (Growth inhibition effect is equal to or greater than 10%, and less than 30%)			
O=S(=O)(Cc1ccccc1OC(F)(F)C(F)F)c1ncc(Br)s1 [Compound 1C-163]	5 (Growth inhibition effect is equal to or greater than 90%, or complete withering is achieved)	5 (Growth inhibition effect is equal to or greater than 90%, or complete withering is achieved)				
O=C(CCl)Oc1cccc(F)c1CS(=O)(=O)c1ncc(Cl)s1 [Compound 1C-173]		4 (Growth inhibition effect is equal to or greater than 70%, and less than 90%)				
CC(C)(C)[Si](C)(C)Oc1cccc(F)c1CS(=O)(=O)c1ncc(Cl)s1 [Compound 1C-178]	5 (Growth inhibition effect is equal to or greater than 90%, or complete withering is achieved)	4 (Growth inhibition effect is equal to or greater than 70%, and less than 90%)				
COC(=O)COc1cccc(F)c1CS(=O)(=O)c1ncc(Cl)s1 [Compound 1C-181]	5 (Growth inhibition effect is equal to or greater than 90%, or complete withering is achieved)	4 (Growth inhibition effect is equal to or greater than 70%, and less than 90%)				
CCOC(=O)C(F)Oc1cccc(F)c1CS(=O)(=O)c1ncc(Cl)s1 (stereo not shown) [Compound 1C-182]	5 (Growth inhibition effect is equal to or greater than 90%, or complete withering is achieved)	3 (Growth inhibition effect equal to or greater than 50%, and less than 70%)				

From patent US20200060276A1, “THIAZOLE COMPOUND AND HERBICIDE” (OAT Agrio Co., Ltd., priority 2017, published 2020)
